According to patent US8227228B2, “D-amino acid oxidase, and method for production of L-amino acid, 2-oxo acid, or cyclic imine” (priority 2005, dated 2012):

Assays:
D-amino acid oxidase [1] = molecular target: T1, D-amino acid oxidase (Sungouiella intermedia, UniProt A0A1L0GHW3); assay: Substrate specificity of purified D-amino acid oxidase; format: biochemical, Candida intermedia NBRC0761; conditions: purified enzyme; activity to D-Phe as 100%; each substrate in place of DL-phenylalanine
Procedure: The activity of the D-amino acid oxidase was measured by quantifying hydrogen peroxide produced in the reaction by an enzyme method using peroxidase. Hydrogen peroxide was quantified by an enzyme method as follows. 250 μl of a chromogenic solution containing 50 mM DL-phenylalanine, 0.80 mM 4-aminoantipyrine, 1.31 mM N-ethyl-N-(2-hydroxy-3-sulfopropyl)-m-toluidine, 6 u/ml peroxidase (manufactured by TOYOBO Inc.) and 50 mM Tris-hydrochloric acid buffer (pH 8.0) was mixed with 50 μl of an appropriately diluted enzyme solution, and the mixture was reacted at 30° C. for 30 min. Absorption at 555 nm was measured, and the amount of hydrogen peroxide produced in the reaction mixture was quantified based on the analytical curve prepared in advance. The amount of the enzyme that produced 1 μmol of hydrogen peroxide in 1 minute was defined as 1 unit. In addition, protein was quantified according to a Bradford method using BSA as a standard protein. The specific activity of the purified D-amino acid oxidase was 44.8 units/mg protein (30° C.).
(§1) Moreover, the D-amino acid oxidase activity for examining the properties of the enzyme shown below was measured as follows. 250 μl of a substrate solution containing 100 mM DL-phenylalanine and 50 mM Tris-hydrochloric acid buffer (pH 8.0) was maintained at 30° C. (each temperature for determining the range of operative temperature and the optimal temperature) for 5 min, mixed with 50 μl of an appropriately diluted enzyme solution, and the mixture was reacted at 30° C. (each temperature for determining the range of operative temperature and the optimal temperature) for 5 min. 10 μl of 3N HCl was added to stop the reaction. Then, 500 μl of a chromogenic solution containing 0.80 mM 4-aminoantipyrine, 1.31 mM N-ethyl-N-(2-hydroxy-3-sulfopropyl)-m-toluidine, 6 u/ml peroxidase (manufactured by TOYOBO Inc.) and 50 mM Tris-hydrochloric acid buffer (pH 8.0), which was maintained at 30° C. for 5 min, was mixed with 100 μl of the aforementioned reaction mixture. Absorption at 555 nm was measured, and the amount of hydrogen peroxide produced in the reaction mixture was quantified based on the analytical curve prepared in advance.
The substrate specificity of the purified D-amino acid oxidase was examined. The substrate DL-phenylalanine used in the aforementioned enzyme activity assay was changed to each substrate, and the enzyme activity was measured.

D-amino acid oxidase [2] = molecular target: T1, D-amino acid oxidase; assay: Range of reaction temperature and pH, optimal temperature and pH; format: biochemical, Candida intermedia NBRC0761
Procedure: as §1
The range of reaction temperature and the optimal temperature were examined.
The range of reaction pH and the optimal pH were examined. […] The enzyme was active at least within the examined range of pH 6-10.5, and the optimal pH was 8.5-9.5.

D-amino acid oxidase [3] = molecular target: T1, D-amino acid oxidase; assay: Temperature stability and pH stability (residual activity); format: physicochemical, Candida intermedia NBRC0761
Procedure: as §1
The temperature stability of the enzyme was measured based on the residual activity after a treatment at each temperature for 10 min.
The pH stability was examined. […]

D-amino acid oxidase [4] = molecular target: T1, D-amino acid oxidase; assay: Specific activity of purified D-amino acid oxidase (hydrogen peroxide quantified with peroxidase); format: biochemical, Candida intermedia NBRC0761; conditions: 30° C.; 1 unit = 1 μmol hydrogen peroxide in 1 minute; DL-phenylalanine, pH 8.0
Procedure: An enzyme solution is appropriately diluted, mixed with a chromogenic solution containing 50 mM DL-phenylalanine, 0.80 mM 4-aminoantipyrine, 1.31 mM N-ethyl-N-(2-hydroxy-3-sulfopropyl)-m-toluidine, 6 u/ml peroxidase (manufactured by TOYOBO Inc.), and 50 mM Tris-hydrochloric acid buffer (pH 8.0) at 1:5, and reacted at 30° C. for 30 min. The absorbance at 555 nm is measured, and the amount of hydrogen peroxide produced in the reaction mixture is quantified based on the analytical curve prepared in advance. In the embodiment, unless otherwise specified, this method was used to assay the D-amino acid oxidase activity.
The activity of the D-amino acid oxidase was measured by quantifying hydrogen peroxide produced in the reaction by an enzyme method using peroxidase. Hydrogen peroxide was quantified by an enzyme method as follows. […] Absorption at 555 nm was measured, and the amount of hydrogen peroxide produced in the reaction mixture was quantified based on the analytical curve prepared in advance. […] In addition, protein was quantified according to a Bradford method using BSA as a standard protein. […]

[5] = substrate: N[C@H](Cc1ccccc1)C(=O)O; assay: Measurement of Km value relative to D-Phe; format: biochemical, Candida intermedia NBRC0761; conditions: other: D-Phe as substrate, various substrate concentrations, reciprocal plot (FIG. 2); pH 8.0; 30.0 °C
Procedure: as §1
Using D-Phe as a substrate, the activity was measured at various substrate concentrations and the Km value relative to D-Phe was determined. From the results shown in FIG. 2, the Km value relative to D-Phe was about 1.7 (not less than 1.6 and not more than 1.8) mM.

Molecule	relative activity (%) (D-amino acid oxidase [1])	also measured
NC(=O)CC[C@@H](N)C(=O)O [D-Gln]	5.8	
N[C@@H](C(=O)O)c1ccc(O)c(O)c1 [D-3,4-dihydroxy-phenylglycine]	5.7	
N[C@H](CO)C(=O)O [D-Ser]	11.3	
NC(CCBr)C(=O)O (racemic) [DL-2-amino-4-Br-butyric acid]	17.2	
NCC(=O)O [Gly]	0.0	
C[C@@H](N)C(=O)O [D-Ala]	129.1	
CCC[C@H](N)C(=O)O [L-Norvaline]	0.0	
CC[C@@H](C)[C@@H](N)C(=O)O [D-Ile]	16.6	
CC(C)[C@@H](N)C(=O)O [D-Val]	27.3	
N[C@H](CCC(=O)O)C(=O)O [D-Glu]	0.0	
NC(=O)C[C@@H](N)C(=O)O [D-Asn]	5.8	
N[C@H](Cc1c[nH]cn1)C(=O)O [D-His]	4.2	
CCC(C(=O)O)c1ccccc1 (racemic) [DL-α-phenylbutyric acid]	194.7	
CSCC[C@H](N)C(=O)O [L-Met]	0.0	
N[C@H](CC(=O)O)C(=O)O [D-Asp]	0.0	
O=C(O)[C@@H]1CCCN1 [L-Pro]	0.0	
NC(N)=NCCCC(N)C(=O)O [D-Arg]	0.05	
N[C@H](Cc1ccc(F)cc1)C(=O)O [D-p-F-Phe]	167.2	
C[C@H](O)[C@@H](N)C(=O)O [D-Thr]	4.7	
CCCC(N)C(=O)O (racemic) [DL-Norvaline]	93.8	
O=C(O)[C@H]1CCCN1 [D-Pro]	44.3	
C[C@H](N)C(=O)O [L-Ala]	0.0	
NCCCC[C@@H](N)C(=O)O [D-Lys]	0.0	
CC(C)C[C@@H](N)C(=O)O [D-Leu]	96.7	
CSCC[C@@H](N)C(=O)O [D-Met]	100.5	
D-amino acid oxidase (Sungouiella intermedia) (protein) MSEYVIVGSGIIGLYTGYKLLESGVPGESITVEAEFLPGDESIKYTSPYAGGNFSGITGDDPDSLKFDKHTYENLPKLQKLLGGPLCGLDMLPATEIWDNVKSKKIDSLKQYLKDYQEIEQEELPEGAKFGVKFTTWNFNCPKFLSNVQKYLLSKNVTFIRKNLTHITQAFGPATKCVFNCTGNGARFLGGVQDAKVYPTRGQVVVIKAPHINENMIRWGDNYATYIIKRPYSHDQLILGGFLQKDDWTPDTLSEQTEDILFRTTNLLPKILNQNPHGPNIEDLEIVRVVAGLRPSRHGGVRIEKEVLDGKLLIHNYGAGGYGYQSGLGMADKAVKLALGQSKL		optimal pH (D-amino acid oxidase [2]; FIG. 4): 8.5-9.5 pH; range of reaction temperature (highly active) (D-amino acid oxidase [2]; examined range, activity at 30° C. as 100% (FIG. 3)): 20-60 °C; range of reaction pH (active) (D-amino acid oxidase [2]; examined range, activity at pH 8.0 as 100% (FIG. 4)): 6-10.5 pH; pH stability (comparatively stable at) (D-amino acid oxidase [3]; residual activity after 30° C. for 16 hr at each pH (FIG. 6)): 7.8-8.7 pH; temperature stability (stable at) (D-amino acid oxidase [3]; residual activity after treatment at each temperature for 10 min (FIG. 5)): ≤ 40 °C; specific activity (D-amino acid oxidase [4]): 44.8 units/mg protein; Km [5]: 1700 µM
